Experimental data published in patent US20080249123A1, “WORTMANNIN-RAPAMYCIN CONJUGATE AND USES THEREOF” (Wyeth, priority 2007, published 2008).
pIC50: −log10 of the molar value.

Legend:
MCF7 = assay: In vitro cell culture growth assay (MTS), MCF7; assay type: cell-based, Human; details: breast line, 3 days after drug treatment
Method: (§1) Human tumor cell lines (Table 3) include prostate lines LNCap and PC3MM2, breast lines MDA468, MCF7, renal line HTB44 (A498), colon line HCT116, and ovarian line OVCAR3. Cells were plated in 96-well culture plates.
(§2) One day following plating, the following conjugates (inhibitors) were added to cells: • Compound A 42,17′-linked wortmannin-adipate-rapamycin conjugate, diethylamine adduct • Compound B 42,17′-linked wortmannin-adipate-rapamycin conjugate. • Compound C 42,17′-linked wortmannin-succinate-rapamycin conjugate, N,N,N′-trimethyl 1,3-propanediamine adduct • Compound D 42,17′-linked wortmannin-adipate-rapamycin conjugate, diallylamine adduct • Compound E 42,17′-linked wortmannin-adipate-rapamycin conjugate, N,N,N′-trimethyl 1,3-propanediamine adduct • Compound F 42,17′-linked wortmannin-suberate-rapamycin conjugate, N,N,N′-trimethyl 1,3-propanediamine adduct.
(§3) Three days after drug treatment, viable cell densities were determined by metabolic conversion (by viable cells) of the MTS dye (3-(4,5-dimethylthiazol-2-yl)-5-(3 carboxymethoxyphenyl)-2-(4-sulfophenyl)-2H-tetrazolium, inner salt), a well established cell proliferation assay. The assays were performed using an assay kit purchased from Promega Corp. (Madison, Wis.) following the protocol supplied with the kit. The MTS assay results were read in a 96-well plate reader by measuring absorbance at 490 nm. The effect of each treatment was calculated as percent of control growth relative to the vehicle-treated cells grown in the same culture plate. The drug concentration that conferred 50% inhibition of growth was determined as IC50 (μg/mL). See, Table 3.

OVCAR3 = assay: In vitro cell culture growth assay (MTS), OVCAR3; assay type: cell-based, Human; details: ovarian line, 3 days after drug treatment
Method: as §1, §2, §3

HCT116 = assay: In vitro cell culture growth assay (MTS), HCT116; assay type: cell-based, Human; details: colon line, 3 days after drug treatment
Method: as §1, §2, §3

PC3MM2 = assay: In vitro cell culture growth assay (MTS), PC3MM2; assay type: cell-based, Human; details: prostate line, 3 days after drug treatment
Method: as §1, §2, §3

HTB44 (A498) = assay: In vitro cell culture growth assay (MTS), HTB44 (A498); assay type: cell-based, Human; details: renal line, 3 days after drug treatment
Method: as §1, §2, §3

LNCap = assay: In vitro cell culture growth assay (MTS), LNCap; assay type: cell-based, Human; details: prostate line, 3 days after drug treatment
Method: as §1, §2, §3

MDA468 = assay: In vitro cell culture growth assay (MTS), MDA468; assay type: cell-based, Human; details: breast line, 3 days after drug treatment
Method: as §1, §2, §3

U87MG Glioma Xenografts = assay: Xenograft tumor efficacy study, U87MG glioma in nude mice; assay type: in vivo; details: for Tumor Volume mean, Day 14 / S/T (D14), Survival over total in group / t/c (Treated over control) tumor volume, Day 14: Day 14
Method: Female nude mice at 10 weeks of age were inoculated subcutaneously on the flank with 200 μL U87MG (human gliobastoma) tumor cell suspension. U87MG cells were suspended in full growth media and were implanted at 10 million cells per mouse. Mice were staged when tumors reached approximately 200 mm^3 in sizes. Tumor bearing mice at staging (day 0) were randomized into treatment groups (n=10). […]
The growth of tumors was monitored twice a week for the duration of the experiment. Tumor size was measured using sliding vernier calipers, and the tumor mass was calculated using the formula (length×Width^2)/2.
The experimental methods for drug preparation, dosing route, regimen, etc (listed in the Table 4) were similar to the experiments presented in the Figures. The data in Table 4 and the Figures were derived from multiple and completely different experiments. Within Table 4, the data contained separate experiments.

C3H mammary model = details: cited from earlier work
PI3K = details: cited from earlier work

Molecule | IC50 inhibition of tumor cell growth, MCF7 (MCF7) [µg/mL] | IC50 inhibition of tumor cell growth, OVCAR3 (OVCAR3) [µg/mL] | IC50 inhibition of tumor cell growth, HCT116 (HCT116) [µg/mL] | IC50 inhibition of tumor cell growth, PC2MM2 (PC3MM2) [µg/mL] | IC50 inhibition of tumor cell growth, HTB44 (HTB44 (A498)) [µg/mL] | IC50 inhibition of tumor cell growth, LNCap (LNCap) [µg/mL] | IC50 inhibition of tumor cell growth, MDA468 (MDA468) [µg/mL] | Tumor Volume mean, Day 0 (U87MG Glioma Xenografts; 3 mg/kg IV on day 0 and day 7) [mm^3] | Tumor Volume mean, Day 3 (U87MG Glioma Xenografts; 3 mg/kg IV on day 0 and day 7) [mm^3] | Tumor Volume mean, Day 7 (U87MG Glioma Xenografts; 3 mg/kg IV on day 0 and day 7) [mm^3] | Tumor Volume mean, Day 10 (U87MG Glioma Xenografts; 3 mg/kg IV on day 0 and day 7) [mm^3] | Tumor Volume mean, Day 14 (U87MG Glioma Xenografts; 3 mg/kg IV on day 0 and day 7) [mm^3] | t/c (Treated over control) tumor volume, Day 0 (U87MG Glioma Xenografts; 3 mg/kg) | t/c (Treated over control) tumor volume, Day 3 (U87MG Glioma Xenografts; 3 mg/kg) | t/c (Treated over control) tumor volume, Day 7 (U87MG Glioma Xenografts; 3 mg/kg) | t/c (Treated over control) tumor volume, Day 10 (U87MG Glioma Xenografts; 3 mg/kg) | S/T (D14), Survival over total in group (U87MG Glioma Xenografts; 3 mg/kg) | t/c (Treated over control) tumor volume, Day 14 (U87MG Glioma Xenografts; 3 mg/kg) | Tumor Volume mean, Day 0 (U87MG Glioma Xenografts; 15 mg/kg IV on day 0 and day 7) [mm^3] | Tumor Volume mean, Day 3 (U87MG Glioma Xenografts; 15 mg/kg IV on day 0 and day 7) [mm^3] | also measured
42,17′-linked wortmannin-adipate-rapamycin conjugate [Compound B] | 1.00 | 4.70 | 16.50 | 1.10 | 3.50 | 0.80 | 2.05 | – | – | – | – | – | – | – | – | – | – | – | – | – | –
42,17′-linked wortmannin-adipate-rapamycin conjugate, N,N,N′-trimethyl 1,3-propanediamine adduct [Compound E] | 1.00 | 3.15 | 7.50 | 1.95 | 5.00 | 0.25 | 1.35 | 182.7 | 214.7 | 340.2 | 471.6 | 595.9 | 0.99 | 0.78 | 0.68 | 0.45 | 10/10 | 0.27 | 187.5 | 168.0 | Tumor Volume mean, Day 7 (U87MG Glioma Xenografts; 15 mg/kg IV on day 0 and day 7): 181.6 mm^3; Tumor Volume mean, Day 10 (U87MG Glioma Xenografts; 15 mg/kg IV on day 0 and day 7): 165.8 mm^3; Tumor Volume mean, Day 14 (U87MG Glioma Xenografts; 15 mg/kg IV on day 0 and day 7): 162.8 mm^3; t/c (Treated over control) tumor volume, Day 0 (U87MG Glioma Xenografts; 15 mg/kg): 1.01; t/c (Treated over control) tumor volume, Day 3 (U87MG Glioma Xenografts; 15 mg/kg): 0.61; t/c (Treated over control) tumor volume, Day 7 (U87MG Glioma Xenografts; 15 mg/kg): 0.36; t/c (Treated over control) tumor volume, Day 10 (U87MG Glioma Xenografts; 15 mg/kg): 0.16; S/T (D14), Survival over total in group (U87MG Glioma Xenografts; 15 mg/kg): 10/10; t/c (Treated over control) tumor volume, Day 14 (U87MG Glioma Xenografts; 15 mg/kg): 0.07; efficacy in multi-cycle treatment (FIG. 2) (U87MG Glioma Xenografts; multi-cycle treatment): sustained efficacy
42,17′-linked wortmannin-adipate-rapamycin conjugate, diallylamine adduct [Compound D] | 0.66 | 1.75 | 5.00 | 0.43 | 4.10 | 0.21 | 1.15 | 185.1 | 244.5 | 435.4 | 636.4 | 1050.1 | 1.00 | 0.89 | 0.87 | 0.60 | 10/10 | 0.47 | 181.5 | 186.0 | Tumor Volume mean, Day 10 (U87MG Glioma Xenografts; 15 mg/kg IV on day 0 and day 7): 242.5 mm^3; Tumor Volume mean, Day 14 (U87MG Glioma Xenografts; 15 mg/kg IV on day 0 and day 7): 254.6 mm^3; t/c (Treated over control) tumor volume, Day 0 (U87MG Glioma Xenografts; 15 mg/kg): 0.98; t/c (Treated over control) tumor volume, Day 3 (U87MG Glioma Xenografts; 15 mg/kg): 0.68; t/c (Treated over control) tumor volume, Day 10 (U87MG Glioma Xenografts; 15 mg/kg): 0.23; S/T (D14), Survival over total in group (U87MG Glioma Xenografts; 15 mg/kg): 10/10; t/c (Treated over control) tumor volume, Day 14 (U87MG Glioma Xenografts; 15 mg/kg): 0.11
42,17′-linked wortmannin-adipate-rapamycin conjugate, diethylamine adduct [Compound A] | 0.29 | 8.50 | >30 | 2.55 | 0.57 | 0.04 | 0.38 | – | – | – | – | – | – | – | – | – | – | – | – | – | –
42,17′-linked wortmannin-succinate-rapamycin conjugate, N,N,N′-trimethyl 1,3-propanediamine adduct [Compound C] | 0.38 | 1.13 | 4.20 | 0.50 | 2.00 | 0.20 | 1.20 | 193.0 | 209.6 | 437.2 | 691.8 | 1091.7 | 1.04 | 0.76 | 0.88 | 0.66 | 10/10 | 0.49 | 183.6 | 193.5 | Tumor Volume mean, Day 7 (U87MG Glioma Xenografts; 15 mg/kg IV on day 0 and day 7): 246.7 mm^3; Tumor Volume mean, Day 10 (U87MG Glioma Xenografts; 15 mg/kg IV on day 0 and day 7): 294.2 mm^3; t/c (Treated over control) tumor volume, Day 0 (U87MG Glioma Xenografts; 15 mg/kg): 0.99; t/c (Treated over control) tumor volume, Day 3 (U87MG Glioma Xenografts; 15 mg/kg): 0.70; t/c (Treated over control) tumor volume, Day 7 (U87MG Glioma Xenografts; 15 mg/kg): 0.49; t/c (Treated over control) tumor volume, Day 10 (U87MG Glioma Xenografts; 15 mg/kg): 0.28; S/T (D14), Survival over total in group (U87MG Glioma Xenografts; 15 mg/kg): 10/10; t/c (Treated over control) tumor volume, Day 14 (U87MG Glioma Xenografts; 15 mg/kg): 0.11; antitumor activity (FIG. 2) (U87MG Glioma Xenografts; i.v. 1× weekly for 2 rounds at 1.5 mg/kg): improved inhibition of tumor cell growth; antitumor activity (FIG. 2) (U87MG Glioma Xenografts; i.v. 1× weekly for 2 rounds at 4.5 mg/kg): some improvement; antitumor activity (FIG. 2) (U87MG Glioma Xenografts; i.v. 1× weekly for 8 rounds at 15 mg/kg): Significant improvement
COCC1OC(=O)c2coc3c2C1(C)C1=C(C3=O)C2CCC(O)C2(C)CC1OC(C)=O (stereo not drawn) [17β-Hydroxywortmannin] | – | – | – | – | – | – | – | – | – | – | – | – | – | – | – | – | – | – | – | – | anti-tumor activity in the C3H mammary model (C3H mammary model; dose of 0.5 mg/kg): no inhibition; toxicity in the C3H mammary model (C3H mammary model; dose of 1.0 mg/kg): toxicity; increase in activity relative to wortmannin (PI3K; PI3K): 10 fold; pIC50 (PI3K): 9.30
